25 molecules from patent publication US9365540B2, “Benzimidazole derivatives as MCH receptor antagonists” (Takeda Pharmaceutical Company Limited, priority 2012, dated 2016) can be followed below.

The target of test [1] is T1, human MCH receptor 1 (MCHR1) (Homo sapiens, UniProt Q99705).
T1 construct: expressed in transfected cells; host or cells: CHO cell clone 57 (membrane fraction)
The test can be described thus: human MCH receptor 1 (MCHR1) competitive binding assay with [125I]-MCH(4-19). To be noted: test compound 0.1 μM, human MCHR1-expressing CHO cell membrane fraction; for inhibition at 0.1 µM: read-out: Binding inhibition rate % (0.1 μM). A digest of the protocol:
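Percent binding inhibition by 0.1 μM test compound, corrected for nonspecific binding defined with unlabeled MCH(1-19), is read by scintillation after filtration onto PEI-treated GF/C filters. The reaction runs 1 hr at room temperature with [125I]-MCH(4-19) and human MCHR1-CHO cell membranes in Tris-HCl pH 7.5 buffer containing EDTA and protease inhibitors.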

The target in the next test is T2, human MCHR1 (Homo sapiens, UniProt Q99705).
T2 construct: expressed in transfected cells; host or cells: CHO dhfr- cells, clone #4
T2 sequence (Q99705 whole entry): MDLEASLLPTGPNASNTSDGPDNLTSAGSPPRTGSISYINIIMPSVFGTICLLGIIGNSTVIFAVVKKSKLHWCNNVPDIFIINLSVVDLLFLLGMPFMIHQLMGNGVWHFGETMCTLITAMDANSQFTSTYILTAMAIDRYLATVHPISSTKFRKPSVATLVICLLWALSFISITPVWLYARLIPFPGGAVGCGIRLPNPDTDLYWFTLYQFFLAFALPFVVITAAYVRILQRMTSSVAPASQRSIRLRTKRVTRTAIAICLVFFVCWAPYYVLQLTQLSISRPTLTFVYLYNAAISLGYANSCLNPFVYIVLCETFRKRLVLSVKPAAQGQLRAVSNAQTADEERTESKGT
Description: MCH receptor 1 antagonistic activity, Ca2+ mobilization assay. In kind it is cell-based. To be noted: for inhibition at 0.1 µM: CHO, read-out: Inhibitory rate % (0.1 μM); for Inhibitory rate % (0.1 μM): hydrochloride. The procedure: Measurement of MCH Receptor 1 Antagonistic Activity of Test Compound Using Ca^2+ Mobilization Assay Using an expression vector plasmid introduced with human MCHR1 gene for expression in animal cells, human MCHR1 gene was introduced into CHO cells (CHO dhfr^−) by Lipofectamine LTX (Invitrogen). The cells were cultured in selection MEMα medium [445 mL of MEMα medium without nucleic acid and added with 5 mL of Penicillin-Streptomycin (Invitrogen) and 50 mL of dialyzed fetal bovine serum]. Colony 24 clones grown in the selection medium, which were human MCHR1 gene-expressing CHO cell candidates, were selected. […] In the following test, this human MCHR1-expressing CHO cell (clone #4) was used. An integrated dispensing function fluorometer (CellLux, PerkinElmer) was used for Ca^2+ mobilization assay. […] The medium was removed, and the cells were washed with phosphate buffered saline (PBS). […] The plate was set on a plate reader. […] The inhibition rates (%) of test compounds (0.1 μM) as antagonist activity measured using human MCHR1-expressing CHO cells (clone #4) are shown in the following Table 3.

[2] abbreviates: test compound 0.1 μM, human MCHR1-expressing CHO cells (clone #4), ligand MCH(4-19) 2 nM.

Where a name gives a salt, the structure may show the parent alone. Read-outs that look alike come from different tables or passages of the source.

T1 sequence (Q99705 whole entry): as above

In the case of `Cc1c(C2CC2)nc2ccc(-n3ccc(OCc4ccc(Br)cc4)cc3=O)cn12` [Example 192, 4-((4-Bromobenzyl)oxy)-1-(2-cyclopropyl-3-methylimidazo[1,2-a]pyridin-6-yl)pyridin-2(1H)-one], the inhibition at 0.1 µM in test [1] is 85%; on human MCHR1 (setting [2]), 98%.
For `Cc1c(C2CC2)nc2ccc(-n3ccc(OCc4nc(C(F)(F)F)cs4)cc3=O)cn12` [Example 193, 1-(2-Cyclopropyl-3-methylimidazo[1,2-a]pyridin-6-yl)-4-((4-(trifluoromethyl)-1,3-thiazol-2-yl)methoxy)pyridin-2(1H)-one], the inhibition at 0.1 µM amounted to 89% in test [1] and 99% on human MCHR1 (setting [2]).
Turning to `Cc1c(C2CC2)nc2ccc(-n3ccc(OCc4nc(Br)cs4)cc3=O)cn12` [Example 194, 4-((4-Bromo-1,3-thiazol-2-yl)methoxy)-1-(2-cyclopropyl-3-methylimidazo[1,2-a]pyridin-6-yl)pyridin-2(1H)-one], the inhibition at 0.1 µM in test [1] was found to be 82%; on human MCHR1 (setting [2]), 100%.
With `Cn1c(C2CC2)nc2ccc(-n3ccc(OCc4ccc(Cl)o4)cc3=O)cc21` [Example 202, 4-((5-Chloro-2-furyl)methoxy)-1-(2-cyclopropyl-1-methyl-1H-benzimidazol-6-yl)pyridin-2(1H)-one], the results for the inhibition at 0.1 µM (in test [1]; at human MCHR1 (setting [2])) were 67% and 104%, respectively.
Regarding `Cn1c(C2CC2)nc2ccc(-n3ccc(OCc4cc(Cl)cs4)cc3=O)cc21` [Example 228, 4-((4-Chlorothiophen-2-yl)methoxy)-1-(2-cyclopropyl-1-methyl-1H-benzimidazol-6-yl)pyridin-2(1H)-one], the inhibition at 0.1 µM was determined as 89% in test [1] and 103% on human MCHR1 (setting [2]).
For the molecule `CCc1nc2ccc(-n3ccc(OCc4csc(F)c4)cc3=O)cc2n1C` [Example 231, 1-(2-Ethyl-1-methyl-1H-benzimidazol-6-yl)-4-((5-fluoro-3-thienyl)methoxy)pyridin-2(1H)-one], the inhibition at 0.1 µM came out at 71% in test [1] and 95% at human MCHR1 (setting [2]).
On the same counts, the results for `CCc1nc2ccc(-n3ccc(OCc4ccsc4)cc3=O)cc2n1C` [Example 235, 1-(2-Ethyl-1-methyl-1H-benzimidazol-6-yl)-4-(3-thienylmethoxy)pyridin-2(1H)-one] are 69% and 93%.
Consider `CCc1nc2ccc(-n3ccc(OCc4cc(Cl)cs4)cc3=O)cc2n1C` [Example 236, 4-((4-Chlorothiophen-2-yl)methoxy)-1-(2-ethyl-1-methyl-1H-benzimidazol-6-yl)pyridin-2(1H)-one], for which the inhibition at 0.1 µM in test [1] worked out at 76%; on human MCHR1 (setting [2]), 96%.
On to `Cn1c(C2CC2C#N)nc2ccc(-n3ccc(OCc4ccc(Cl)cc4)cc3=O)cc21` (stereo not drawn) [Example 237, (1R*,2S*)-2-(6-(4-((4-Chlorobenzyl)oxy)-2-oxopyridin-1(2H)-yl)-1-methyl-1H-benzimidazol-2-yl)cyclopropanecarbonitrile hydrochloride], for which, in test [1], the inhibition at 0.1 µM is 78%. The “Inhibitory rate % (0.1 μM)” value on human MCHR1 (setting [2]) turned out to be 67%.
Turning to `Cn1c(C2CC2C#N)nc2ccc(-n3ccc(OCc4ccc(Cl)cc4)cc3=O)cc21` (stereo not drawn) [Example 238, (1R*,2S*)-2-(6-(4-((4-Chlorobenzyl)oxy)-2-oxopyridin-1(2H)-yl)-1-methyl-1H-benzimidazol-2-yl)cyclopropanecarbonitrile hydrochloride], the “Binding inhibition rate % (0.1 μM)” value in test [1] (hydrochloride, 0.1 µM) is 65%. Further, the “Inhibitory rate % (0.1 μM)” value on human MCHR1 (setting [2]) stood at 42%.
On to `Cn1c(C2CC2)nc2ccc(-n3ccc(OCc4cc(F)c(F)s4)cc3=O)cc21` [Example 239, 1-(2-Cyclopropyl-1-methyl-1H-benzimidazol-6-yl)-4-((4,5-difluoro-2-thienyl)methoxy)pyridin-2(1H)-one], for which the inhibition at 0.1 µM was found to be 74% in test [1] and 92% on human MCHR1 (setting [2]).
As to `Cn1c(C2CC2)nc2ccc(-n3ccc(OCc4cc(Br)cs4)cc3=O)cc21` [Example 240, 4-((4-Bromo-2-thienyl)methoxy)-1-(2-cyclopropyl-1-methyl-1H-benzimidazol-6-yl)pyridin-2(1H)-one], the inhibition at 0.1 µM in test [1] stood at 91%; at human MCHR1 (setting [2]) it was 99%.
As to `Cn1c(C2CC2)nc2ccc(-n3ccc(OCc4ccc(C(F)(F)F)o4)cc3=O)cc21` [Example 241, 1-(2-Cyclopropyl-1-methyl-1H-benzimidazol-6-yl)-4-((5-(trifluoromethyl)-2-furyl)methoxy)pyridin-2(1H)-one], the figures for the inhibition at 0.1 µM (in test [1]; on human MCHR1 (setting [2])) were 56% and 76%, respectively.
On the same counts, the results for `Cn1c(C2CC2)nc2ccc(-n3ccc(COc4ccc(F)cc4)cc3=O)cc21` [Example 243, 1-(2-Cyclopropyl-1-methyl-1H-benzimidazol-6-yl)-4-((4-fluorophenoxy)methyl)pyridin-2(1H)-one] are 38% and 72%.
Take `Cn1c(C2CC2)nc2ccc(-n3ccc(OCc4cc(Br)c(F)s4)cc3=O)cc21` [Example 244, 4-((4-Bromo-5-fluoro-2-thienyl)methoxy)-1-(2-cyclopropyl-1-methyl-1H-benzimidazol-6-yl)pyridin-2(1H)-one]: the figures for the inhibition at 0.1 µM (in test [1]; at human MCHR1 (setting [2])) were 83% and 98%, respectively.
For the molecule `Cn1c(C2CC2)nc2ccc(-n3ccc(COc4ccc(Cl)cc4)cc3=O)cc21` [Example 245, 4-((4-Chlorophenoxy)methyl)-1-(2-cyclopropyl-1-methyl-1H-benzimidazol-6-yl)pyridin-2(1H)-one], the inhibition at 0.1 µM in test [1] was 59%; at human MCHR1 (setting [2]), 58%.
Take `Cn1c(C2CC2)nc2ccc(-n3ccc(OCc4ccc(C(F)F)s4)cc3=O)cc21` [Example 248, 1-(2-Cyclopropyl-1-methyl-1H-benzimidazol-6-yl)-4-((5-(difluoromethyl)-2-thienyl)methoxy)pyridin-2(1H)-one]: the inhibition at 0.1 µM in test [1] was found to be 79%; at human MCHR1 (setting [2]), 97%.
As for `Cn1c(C2CC2)nc2ccc(-n3ccc(OCc4csc(Br)c4)cc3=O)cc21` [Example 250, 4-((5-Bromo-3-thienyl)methoxy)-1-(2-cyclopropyl-1-methyl-1H-benzimidazol-6-yl)pyridin-2(1H)-one], the inhibition at 0.1 µM turned out to be 92% in test [1] and 100% on human MCHR1 (setting [2]).
Turning to `Cn1c(C2CC2)nc2ccc(-n3ccc(OCc4nc(C(F)(F)F)cs4)cc3=O)cc21` [Example 256, 1-(2-Cyclopropyl-1-methyl-1H-benzimidazol-6-yl)-4-((4-(trifluoromethyl)-1,3-thiazol-2-yl)methoxy)pyridin-2(^1H)-one], the inhibition at 0.1 µM in test [1] was 70%; on human MCHR1 (setting [2]), 97%.
Consider `Cn1c(C2CC2)nc2ccc(-n3ccc(OCc4ccc(Br)o4)cc3=O)cc21` [Example 259, 4-((5-Bromo-2-furyl)methoxy)-1-(2-cyclopropyl-1-methyl-1H-benzimidazol-6-yl)pyridin-2(1H)-one], for which the inhibition at 0.1 µM in test [1] is 70%; on human MCHR1 (setting [2]) it was 100%.
`Cn1c(C2CC2)nc2ccc(-n3ccc(OCc4ccc(Br)cn4)cc3=O)cc21` [Example 260, 4-((5-Bromopyridin-2-yl)methoxy)-1-(2-cyclopropyl-1-methyl-1H-benzimidazol-6-yl)pyridin-2(1H)-one]: the figures for the inhibition at 0.1 µM (in test [1]; at human MCHR1 (setting [2])) were 75% and 104%, respectively.
On to `CCc1nc2ccc(-n3ccc(OCc4nc(C(F)(F)F)cs4)cc3=O)cc2n1C` [Example 261, 1-(2-Ethyl-1-methyl-1H-benzimidazol-6-yl)-4-((4-(trifluoromethyl)-1,3-thiazol-2-yl)methoxy)pyridin-2(1H)-one], for which the figures for the inhibition at 0.1 µM (in test [1]; on human MCHR1 (setting [2])) were 57% and 100%, respectively.
Turning to `Cn1c(C2CC2)nc2ccc(-n3ccc(OCc4coc(Br)c4)cc3=O)cc21` [Example 262, 4-((5-Bromo-3-furyl)methoxy)-1-(2-cyclopropyl-1-methyl-1H-benzimidazol-6-yl)pyridin-2(1H)-one], the inhibition at 0.1 µM in test [1] was determined as 80%; on human MCHR1 (setting [2]), 98%.
On to `Cc1c(C2CC2)nc2ccc(-n3ccc(OCc4ccccn4)cc3=O)cn12` [Example 263, 1-(2-Cyclopropyl-3-methylimidazo[1,2-a]pyridin-6-yl)-4-(pyridin-2-ylmethoxy)pyridin-2(1H)-one hydrochloride], for which the inhibition at 0.1 µM was 30% in test [1] and 52% at human MCHR1.
Turning to `CCc1nc2ccc(-n3ccc(OCc4csc(C(F)(F)F)c4)cc3=O)cc2n1C` [Example 265, 1-(2-Ethyl-1-methyl-1H-benzimidazol-6-yl)-4-((5-(trifluoromethyl)-3-thienyl)methoxy)pyridin-2(1H)-one], the inhibition at 0.1 µM in test [1] was found to be 61%; on human MCHR1 (setting [2]) it was 97%.
